Experimental data reported in patent US20100093613A1, “METHODS FOR IDENTIFYING AGENTS AND THEIR USE FOR THE PREVENTION OR STABILIZATION OF FIBROSIS” (priority 2007, published 2010).

Tested on: Bronchial epithelial cells + Fibroblasts
Assay: BioMAP BF4T system (IL-4 + TNF-α), scoring of readout parameters
Type: cell-based, human
Set-up: key: 1 = modulated in desired direction, 0 = not (−1 if opposite)
Conditions: for MMP-3 score / PAI-1 score: desired change decrease; for MMP-1 score / uPA score: desired change increase
Experimental: In the “BF4T” system, bronchial epithelial cells, usually primary human bronchial epithelial cells, are cultured with fibroblasts, usually primary human fibroblasts, in the presence of TNF-α and IL-4. In addition to the factors, stimuli of interest that may be included in the culture medium include TGF-β, IL-5, II-10, IL-9, Tryptase, GM-CSF, II-17, CD40L, Histamine, IgE stimulated Mast Cells, LTB4 stimulated neutrophils, and PBMC stimulated with LPS or SAg.
Human neonatal fibroblasts (HDFn) and normal human bronchial epithelial cells (BrEPI) are used. Human lung fibroblasts (adult or neonatal) could also be used. HDFn are cultured in DMEM/F12 (50/50) from Cellgro, supplemented with LSGS kit (from Cascade Biologics); fetal bovine serum, 2% v/v, hydrocortisone 1 μg/ml, human epidermal growth factor 10 ng/ml, basic fibroblast growth factor 3 ng/ml and heparin 10 μg/ml, and penicillin/streptomycin amphotericin B solution (PSA). BrEPI are cultured in supplemented BEBM medium (Cambrex) at 2×10^4/ml. BrEPI may also be cultured with Bronchial/Tracheal Epithelial Cell Serum-Free Growth Medium (Cell Applications, Inc.) or F12/DMEM supplemented with 10 μg/ml rhu-insulin, 10 μg/ml transferrin, 10 ng/ml epidermal growth factor (EGF), 1 μM ethanolamine, 25 μg/ml aprotinin, 25 μg/ml glucose, 1 μM phosphoethanolamine, 5 μM triiodothyronine, 50 nM selenium, 1 nM hydrocortisone, 1 nM progesterone, 5 μM forskolin, 10 μM heregulin β177-244, 5 μl/ml fibronectin, 4 μl/ml bovine pituitary extract and retinoid acid. HDFn are plated for assays at 3×10^4 cells/ml. After 2 days, media is replaced with BrEPI media containing 10^4 BrEPI cells and cultured for a further 2 days.
Upon reaching confluency, the test agent or buffer control is added and the following are applied: 5 ng/ml of IL-4 and 5 ng/ml TNF-α (BF4T). After another 24 hours incubation (37° C., 5% CO2) the cultures are evaluated for the following parameters: CD90, Keratin 8/18, Eotaxin-3, I-TAC, ICAM-1, EGFR, IL-1α, IL-8, MCP-1, MMP-9, MMP-1, MMP-3, PAI-1, TGF-β3, TIMP-2, uPA, tPA, CD87 and VCAM-1. Additional readouts of interest may include IP-10, Elafin/SKALP, Endothelin-1, Gro-a, CD119, IL-6, GM-CSF, IL-16, FGF, PDGF, CD44, E-cadherin, CD40, IL-15Ralpha, CD1d, CD80, CD86, TARC, eotaxin-1, CD95, MCP-4 and MIP-3a. Other stimuli of interest include: TGFbeta, IL-5, II-10, IL-9, Tryptase, GM-CSF, II-17, CD40L, Histamine, IgE stimulated Mast Cells, LTB4 stimulated neutrophils, and PBMC stimulated with LPS or SAg.
Each screened compound is scored according to its modulation of the selected readout parameters. Compounds receive a positive score (score of 1) or negative score (score of 0) for each readout parameter set forth in Table 2 that is modulated in the desired direction. […] Parameters may be penalized by making the positive score a −1 for parameters where regulation is opposite to the desired direction.
Cell culture. Human umbilical vein endothelial cells (HUVEC) were pooled from multiple donors, cultured according to standard methods, and plated into microtiter plates at passage 4. Cell culture medium for all systems containing HUVEC included hydrocortisone. Coronary artery smooth muscle cells (CASM3C) and umbilical artery smooth muscle cells (HSM3C) were cultured according to standard procedures. Peripheral blood mononuclear cells (PBMC) were prepared from buffy coats from normal human donors according to standard methods. Monocyte-derived macrophages were differentiated in the presence of M-CSF for 7 d according to standard procedures. Human dermal fibroblasts were pooled from 3 donors, cultured according to standard methods, and plated confluent 24 h before stimulation. Cell culture medium for all systems containing fibroblasts and keratinocytes contained low hydrocortisone. Epidermal keratinocytes and bronchial epithelial cells from 3 donors were cultured according to standard procedures and pooled when plated into microtiter plates.

Molecule	MMP-3 score	PAI-1 score	MMP-1 score	uPA score
COc1cc2c(c(OC)c1OC)-c1ccc(OC)c(=O)cc1[C@@H](NC(C)=O)CC2 [Colchicine]	0	0	0	0
CCc1oc2ccccc2c1C(=O)c1cc(Br)c(O)c(Br)c1 [Benzbromarone]	1	0	0	0
Fc1ccc(C(OCCN2CCN(CCCc3ccccc3)CC2)c2ccc(F)cc2)cc1 [GBR 12909]	0	0	0	0
Antimycin A	0	0	0	1
COc1cc(-c2ccc(=O)[nH]n2)ccc1OC(F)F [Zardaverine]	0	1	0	0
C[C@]12C=CC(=O)C=C1CC[C@@H]1[C@@H]2[C@@H](O)C[C@@]2(C)[C@H]1CC[C@]2(O)C(=O)CO [Prednisolone]	0	0	0	0
O=C(O)c1ccccc1Nc1cccc(C(F)(F)F)c1 [Flufenamic Acid]	0	1	0	0
O=c1cc(-c2ccc(O)c(O)c2)oc2cc(O)cc(O)c12 [Luteolin]	0	1	0	0
COC(=O)Nc1nc2ccc(SC(C)C)cc2[nH]1 [Methiazole]	1	1	0	0
CCN(CC)CCNc1ccc(CO)c2sc3ccccc3c(=O)c12 [Hycanthone]	0	0	0	0
Cn1cnc([N+](=O)[O-])c1Sc1ncnc2nc[nH]c12 [Azathioprine]	0	0	0	0
Cc1c(Cl)cccc1Nc1ccccc1C(=O)O [Tolfenamic Acid]	1	1	0	0
C=C1CC[C@H](O)C/C1=C/C=C1\CCC[C@]2(C)[C@@H]([C@H](C)/C=C/[C@H](C)C(C)C)CC[C@@H]12 [Calciferol]	0	0	0	1
CCCCN(CCCC)CCC(O)c1cc2c(Cl)cc(Cl)cc2c2cc(C(F)(F)F)ccc12 (stereo not drawn) [Halofantrine]	0	1	0	0
(R)-(−)-Apomorphine	0	0	0	0
